Drawing on patent US10253041B2, “7-phenylethylamino-4H-pyrimido[4,5-d][1,3]oxazin-2-one compounds and their use as mutant IDH1 inhibitors” (Eli Lilly and Company, priority 2015, dated 2019), this text covers IC50 for two compounds.

Structures can show the parent of a compound that is named as a salt. Where two headings read alike, the source gives them in different places.

In one assay the target is T1, IDH1/R132C (Homo sapiens, UniProt O75874, R132C).
T1 construct: His-tag (N); made in house; host or cells: E. coli
T1 sequence (O75874 whole entry R132C): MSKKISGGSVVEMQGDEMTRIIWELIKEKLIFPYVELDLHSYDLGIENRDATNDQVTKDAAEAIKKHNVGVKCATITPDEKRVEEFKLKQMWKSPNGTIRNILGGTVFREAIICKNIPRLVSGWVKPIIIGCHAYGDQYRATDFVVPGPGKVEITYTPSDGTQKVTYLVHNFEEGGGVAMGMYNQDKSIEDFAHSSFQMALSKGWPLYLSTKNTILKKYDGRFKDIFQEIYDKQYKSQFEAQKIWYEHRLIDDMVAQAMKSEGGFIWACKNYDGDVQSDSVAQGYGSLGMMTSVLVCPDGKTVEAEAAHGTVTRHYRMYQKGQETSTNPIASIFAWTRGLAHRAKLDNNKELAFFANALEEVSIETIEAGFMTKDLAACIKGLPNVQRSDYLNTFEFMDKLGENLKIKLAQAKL
Kind of assay: Biochemical assay for IDH1 R132C mutant enzyme (2HG by RapidFire MS). To be noted: mean ± standard deviation of the mean; 90 minutes reaction. The procedure:
(§1) IDH1-R132H, IDH1-R132C, IDH2-R172K and IDH2-R140Q mutant enzymes catalyze the conversion of αKG to 2HG. 2HG is analyzed using in-line solid phase extraction and mass spectrometry. This analysis is carried out in a RapidFire® instrument coupled to a 6460 triple quadrupole mass spectrometer (G6460A Agilent).
(§2) IDH1 mutant (R132H and R132C) and IDH2 mutant (R140Q and R172K) proteins containing N-terminal His-tag are expressed in E. coli and purified using nickel affinity chromatography. The enzyme assays are carried out in V-bottom 96 well polypropylene plates containing 100 mM Tris-HCl buffer, 1 mM DTT, 0.005% TRITON™ X-100, 120 mM NaCl. For IDH1 R132H, α-ketoglutarate, NADPH and MnCl2 are included at final concentrations of 300 μM, 2.5 μM and 300 μM respectively. For IDH1 R132C, α-ketoglutarate, NADPH and MnCl2 are included at final concentrations of 100 μM, 10 μM and 100 μM respectively. For IDH2 R172K, α-ketoglutarate, NADPH and MnCl2 are included at final concentrations of 150 μM, 10 μM and 150 μM respectively. For IDH2 R140Q, α-ketoglutarate, NADPH and MnCl2 are included at final concentrations of 3000 μM, 10 μM and 100 μM respectively. Final pH=7.0. Test compound dissolved in DMSO stock is diluted in the reaction mix at a final DMSO concentration of 4%. Compounds are tested in dose-response format. The assay is started by addition of enzyme. Enzymes are used at the following final concentrations: IDH1 R132H, 2 nM; IDH1 R132C, 0.5 nM; IDH2 R172K, 1.2 nM; IDH2 R140Q, 1.2 nM. After 90 minutes the reaction is quenched by adding ACN (50:50) containing 3-hydroxy-1,5-pentanedioic-2,2,3,4,4-d5 acid (5d5-3HG) as an internal standard for mass spectrometry analysis and quantitation of reaction product. 2-Hydroxyglutarate (2HG) in quenched samples is separated using strong anionic exchange column chromatography (Phenomenex Strata-X-A SecurityGuard) and analyzed by mass spectrometry in a 6460 triple quadrupole mass spectrometer (G6460A Agilent). The 2HG signal detected is transformed into an analyte concentration using a calibration curve generated using known 2HG concentrations. […] IC50 values are obtained from the individual % inhibition values at different compound concentrations using a 4-parameter equation. These calculations are carried out using Activity Base (IDBS) or Screener (Genedata) data analysis programs.

Assay [1] has as its system IDH1/R132H in U87MG glioma cells. The assay is described as follows: U87MG/IDH1R132H cell assay (intracellular 2HG). Format: cell-based. To be noted: Homo sapiens, U-87 MG, 19 h, 1 hour + 18 hours incubation, read-out: U87MG (IDH1/R132H 2-hydroxyglutarate IC50). The procedure:
(§3) To test the cellular inhibition of IDH1 mutant R132C, the fibrosarcoma cell line HT1080 (purchased from ATCC) is used. For testing cell-based inhibition of the R132H mutation, the U87MG glioma cell line (ATCC) was stably transfected with a DNA construct expressing the R132H mutant enzyme.
Cells are plated in poly-D-lys coated 96 well plates (12,000 cells/well) 18-24 hours previous to treatment with compounds. Four hours prior to compound treatment, cells are glutamine-starved by removing normal media and replacing with glutamine-free media. Following starvation, cells are then treated with different concentrations of test compounds (20 μM to 1 nM) dissolved in glutamine free media containing DMSO at a final concentration of 0.2%. The initial compound incubation is for 1 hour at 37° C./5% CO2. After 1 hour, glutamine is added to a final 2 mM concentration and the treated cells are then incubated for a further 18 hours at 37° C./5% CO2. Intracellular 2HG is analyzed in cell lysates obtained after media removal and treatment with lysis buffer (25 mM Tris-HCl pH 7.5, 150 mM NaCl, 1 mM EDTA, 1 mM EGTA/1% Triton-X 100). Cell lysates are conserved at −80° C. until processing. For analyte extraction, an aliquot of thawed lysate is transferred to a deep 96-well plate and treated with cold MeOH containing d5-3HG as an internal standard followed by chloroform and H2O (1:4:3:2). The upper phase is collected after separation and injected in HPLC to separate 2HG (and internal standard) using hydrophilic interaction (HILIC) chromatography coupled to MS/MS detection in a 6460 triple quadrupole mass spectrometer. Percent inhibition for each individual sample is obtained after normalizing calculated 2HG concentration to maximum and minimum references obtained in the presence and in the absence of glutamine during cell treatment with compounds. IC50 values are obtained from individual % inhibition using a sigmoidal dose-response 4-parameter equation. These calculations are carried out automatically using Activity Base (IDBS) or Screener (Genedata) data analysis programs.

For the next assay, the target named is T2, IDH1/R132H (Homo sapiens, UniProt O75874, R132H).
T2 construct: His-tag (N); made in house; host or cells: E. coli
T2 sequence (O75874 whole entry R132H): as the sequence (O75874 whole entry R132C) above, with C132H counted along it
The assay is described as follows: Biochemical assay for IDH1 R132H mutant enzyme (2HG by RapidFire MS). To be noted: mean ± standard deviation of the mean; 90 minutes reaction. The procedure:
as §1, §2

Assay [2] relates to IDH1 mutant R132C in fibrosarcoma cell line HT1080. The assay is described as follows: HT1080 cell assay (intracellular 2HG and αKG). Format: cell-based. Particulars: Homo sapiens, 1 hour + 18 hours incubation. The procedure:
as §3
Fifteen thousand cells are plated in poly-D-lys coated 96 well plates (15,000 cells/well) 18-24 hours prior to treatment with compounds. Four hours prior to compound treatment, cells are glutamine-starved by removing normal media and replacing with glutamine-free media. Following starvation, cells are then treated with different concentrations of test compounds (20 μM to 1 nM) dissolved in glutamine free media containing DMSO at a final concentration of 0.2%. The initial compound incubation is for 1 hour at 37° C./5% CO2. After 1 hour, glutamine is added to a final 2 mM concentration and the treated cells are then incubated for a further 18 hours at 37° C./5% CO2. Following the 18 hour incubation, intracellular 2HG and αKG are analyzed in cell lysates. Lysates are prepared following removal of media and addition of buffer containing 25 mM Tris-HCl pH 7.5, 150 mM NaCl, 1 mM EDTA, 1 mM EGTA/1% Triton-X 100 to the cells. An aliquot of lysate is added to a mix of d6-αKG and d5-3HG as internal standards and the mixture is treated with O-benzylhydroxylamine in the presence of N-(3-dimethylaminopropyl)-N′-ethylcarbodiimide hydrochloride (EDC) and pyridine. Analyte derivatives are then extracted with EtOAc, dried, and then reconstituted with 50% MeOH in H2O. Samples prepared as described are injected into the HPLC to separate 2HG and αKG derivatives (and corresponding internal standards) using a reverse phase chromatography in a C18 column. Analysis of the samples is carried out using a 6460 triple quadrupole mass spectrometer (G6460A Agilent). The 2HG and αKG signals detected are transformed into analyte concentration using the ratio of αKG/d6-αKG and the ratio of 2HG/d5-3HG that is extrapolated within a calibration curve. Percent inhibition for each individual sample is obtained after normalizing calculated 2HG or aKG concentration to maximum and minimum references obtained in the presence and in the absence of glutamine during cell treatment with compounds. IC50 values are obtained from individual % inhibition using a sigmoidal dose-response 4-parameter equation. These calculations are carried out automatically using Activity Base (IDBS) or Screener (Genedata) data analysis programs.

[3] abbreviates: HT-1080, 19 h, intracellular 2HG, read-out: HT1080 (R132C, 2-hydroxyglutarate) IC50.
Setting [4] is: HT-1080, intracellular αKG, read-out: HT1080 (R132C, αKG) IC50.

In the case of `C=CC(=O)N1CCN(Cc2ccc([C@H](C)Nc3ncc4c(n3)N(CC)C(=O)OC4)cc2)CC1` [Example 23, 1-Ethyl-7-[[(1S)-1-[4-[(4-prop-2-enoylpiperazin-1-yl)methyl]phenyl]ethyl]amino]-4H-pyrimido[4,5-d][1,3]oxazin-2-one 4-hydroxybenzoic acid salt], the IC50 was 234 ± 67 nM against IDH1/R132C; 9.03 ± 0.75 nM in assay [1]; 188 ± 48 nM against IDH1/R132H; 32.1 ± 13.6 nM in assay [2] (setting [3]); more than 20000 nM in assay [2] (setting [4]).
Consider `C=CC(=O)N1CCN(c2ccc([C@H](C)Nc3ncc4c(n3)N(CC)C(=O)OC4)cc2)CC1` [Example 18, 1-Ethyl-7-[[(1S)-1-[4-(4-prop-2-enoylpiperazin-1-yl)phenyl]ethyl]amino]-4H-pyrimido[4,5-d][1,3]oxazin-2-one], for which the IC50 on IDH1/R132C was 192 nM; in assay [1] it was 70.7 nM; against IDH1/R132H it was 211 nM; in assay [2] (setting [3]), 380 ± 130 nM; in assay [2] (setting [4]), more than 20000 nM.
